Columns and labels:
HLA B*5801 = HLA B*5801 (Homo sapiens, UniProt P01889, A329T/C349S/D201E/D98Y/E176V/E187L/E204Q/E69T/G107R/I218V/I90N/K202T/L105A/L119I/N104I/N87E/Q89R/Q94S/R106L/R155S/R180L/R86G/S101N/S121R/S35A/S48A/T118I/V127L/V306I/V36M/Y140S/Y91M); format: binding
HLA B*1501 = HLA B*1501 (Homo sapiens, UniProt P01889, A329T/A93T/A95T/C349S/D201E/D98Y/E187L/E204Q/E69M/E70A/K202T/N87E/Q94N/R155S/R180W/S121R/S35A/S48A/V306I/V36M/Y140S/Y91S); test: biochemical; format: binding
H-2 K^k = H-2 K^k (Mus musculus, UniProt P04223); format: binding
H-2 K^k, sequence (P01887 21-119): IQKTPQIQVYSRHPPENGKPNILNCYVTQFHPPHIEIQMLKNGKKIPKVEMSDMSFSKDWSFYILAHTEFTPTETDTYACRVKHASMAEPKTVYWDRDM
H-2 K^k, sequence (P04223 22-369): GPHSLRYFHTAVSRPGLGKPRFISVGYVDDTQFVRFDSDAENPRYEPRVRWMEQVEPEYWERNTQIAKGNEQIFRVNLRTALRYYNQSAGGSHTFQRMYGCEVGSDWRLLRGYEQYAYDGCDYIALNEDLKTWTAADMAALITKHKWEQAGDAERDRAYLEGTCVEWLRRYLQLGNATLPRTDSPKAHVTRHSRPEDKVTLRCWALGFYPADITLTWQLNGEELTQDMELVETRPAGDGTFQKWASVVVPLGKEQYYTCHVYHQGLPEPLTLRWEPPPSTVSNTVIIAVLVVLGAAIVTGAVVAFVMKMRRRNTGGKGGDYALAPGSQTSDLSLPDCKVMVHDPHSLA

HLA B*0702 = HLA B*0702 (Homo sapiens, UniProt P01889); format: binding; details: positional scanning combinatorial 9-mer library; normalized to 1.0 for the best residue at each position
HLA B*5101 = HLA B*5101 (Homo sapiens, UniProt P01889, A329T/A93T/A95T/C349S/D138N/D201E/D98Y/E187L/E204Q/E69T/G107R/I218V/K202T/L105A/L119W/N104I/Q94N/R106L/R155S/R180L/S101N/S121T/S35A/S48A/V306I/V36M/Y195H/Y91F); format: binding
H-2 D^b = H-2 D^b (Mus musculus, UniProt P01899); format: binding
H-2 D^b, sequence (P01887 21-119): as the sequence (P01887 21-119) above
H-2 D^b, sequence (P01899 25-362): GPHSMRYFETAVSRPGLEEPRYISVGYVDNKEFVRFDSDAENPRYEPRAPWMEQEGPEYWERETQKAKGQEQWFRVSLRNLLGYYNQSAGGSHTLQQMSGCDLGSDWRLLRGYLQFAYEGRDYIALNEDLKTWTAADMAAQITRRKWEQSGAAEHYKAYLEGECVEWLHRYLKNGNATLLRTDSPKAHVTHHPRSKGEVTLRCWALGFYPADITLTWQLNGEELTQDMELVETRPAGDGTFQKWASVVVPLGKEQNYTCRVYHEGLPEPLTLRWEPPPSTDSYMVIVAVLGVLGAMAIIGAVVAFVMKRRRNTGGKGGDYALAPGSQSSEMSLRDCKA

HLA B*2705 = HLA B*2705 (Homo sapiens, UniProt P01889, D138H/D201E/E176V/E204Q/G107R/H137Y/K202T/N104T/N87E/Q56L/Q94K/R106L/R155S/R180L/S101D/S121N/S48T/Y140D/Y33H/Y91C); format: binding; details: positional scanning combinatorial 9-mer library; normalized to 1.0 for the best residue at each position
HLA A*6802 = HLA A*6802 (Homo sapiens, UniProt P04439, A269V/D140Y/D185E/E176V/E277Q/E87N/F33Y/G231S/I121R/I166T/I218V/L180W/L300P/L318F/N151K/P208A/P217A/Q86R/R138H/R169H/S129P/T345S/V36M); format: binding
HLA B*1503 = HLA B*1503 (Homo sapiens, UniProt P01889, A329T/A93T/A95T/C349S/D201E/D98Y/E187L/E204Q/K202T/N87E/Q94N/R155S/R180L/S121R/S35A/V306I/V36M/Y140S/Y91S); test: biochemical; format: binding
HLA A*0201 = HLA A*0201 (Homo sapiens, UniProt P04439, D140Y/D185E/D98H/E176V/E277Q/G131W/G231S/I119V/I121R/I166T/I218V/L300P/L318F/N151K/N90K/P208A/P217A/Q86G/Q94H/R138H/R169H/T345S); details: positional scanning combinatorial 9-mer library; normalized to 1.0 for the best residue at each position
HLA A*3001 = HLA A*3001 (Homo sapiens, UniProt P04439, D140H/D185E/E176W/F33S/G80R/H175R/K168Q/R138E/R41S); test: biochemical; format: binding
HLA B*5401 = HLA B*5401 (Homo sapiens, UniProt P01889, A329T/C349S/D138N/D201E/E176V/E187T/E204Q/E69G/I76V/K202T/L119W/R155S/R180L/S121T/S35A/S48A/V127L/V306I/V36M/Y140L); format: binding
HLA B*5301 = HLA B*5301 (Homo sapiens, UniProt P01889, A329T/A93T/A95T/C349S/D201E/D98Y/E176V/E187L/E204Q/E69T/G107R/I218V/K202T/L105A/L119I/N104I/Q94N/R106L/R155S/R180L/S101N/S121R/S35A/S48A/T118I/V127L/V306I/V36M/Y140S/Y91F); format: binding
HLA A*3201 = HLA A*3201 (Homo sapiens, UniProt P04439, A270S/D101S/D185E/E176V/E277Q/F133L/G103R/G107R/G231S/H175R/I121M/I218V/I322F/K168Q/L105A/L300P/L318F/M331R/P208A/P217A/Q94H/R106L/R138Q/S129P/T104I/T323A/T345S/V100E/V321M/V358M); test: biochemical; format: binding
HLA B*0801 = HLA B*0801 (Homo sapiens, UniProt P01889, A93T/A95T/D138N/E176V/E187T/K202T/Q94N/R180D/S35A/V36M/Y33D/Y91F); test: biochemical; format: binding
HLA B*3501 = HLA B*3501 (Homo sapiens, UniProt P01889, A329T/A93T/A95T/C349S/D201E/D98Y/E176V/E187L/E204Q/E69T/I218V/K202T/L119I/Q94N/R155S/R180L/S121R/S35A/S48A/T118I/V127L/V306I/V36M/Y140S/Y91F); format: binding
H-2 D^d = H-2 D^d (Mus musculus, UniProt P01900); format: binding
H-2 D^d, sequence (P01900 whole entry, looked up): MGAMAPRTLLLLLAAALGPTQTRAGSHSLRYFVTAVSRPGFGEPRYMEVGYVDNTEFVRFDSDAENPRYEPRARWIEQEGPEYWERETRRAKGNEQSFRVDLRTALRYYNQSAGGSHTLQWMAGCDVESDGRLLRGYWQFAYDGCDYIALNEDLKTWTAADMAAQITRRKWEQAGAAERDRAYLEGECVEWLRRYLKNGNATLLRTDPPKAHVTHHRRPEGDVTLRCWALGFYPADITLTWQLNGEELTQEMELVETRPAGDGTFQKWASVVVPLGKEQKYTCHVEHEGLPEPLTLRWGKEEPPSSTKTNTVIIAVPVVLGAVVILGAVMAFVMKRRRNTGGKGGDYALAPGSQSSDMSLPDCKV

HLA B*5802 = HLA B*5802 (Homo sapiens, UniProt P01889, A329T/C349S/D201E/D98Y/E176V/E187L/E204Q/E69T/G107R/I218V/I90N/K202T/L105A/N104I/N87E/Q89R/Q94S/R106L/R155S/R180L/R86G/S101N/S121W/S35A/S48A/V127L/V306I/V36M/Y140S/Y91M); format: binding

Sequence | Normalized average relative binding affinity (ARB), HLA B*5801 (HLA B*5801) | Normalized average relative binding affinity (ARB), HLA B*1501 (HLA B*1501) | Normalized average relative binding affinity (ARB), H-2 Kk (H-2 K^k) | Normalized average relative binding affinity (ARB), HLA B*0702 (HLA B*0702) | Normalized average relative binding affinity (ARB), HLA B*5101 (HLA B*5101) | Normalized average relative binding affinity (ARB), H-2 Db (H-2 D^b) | Normalized average relative binding affinity (ARB), HLA B*2705 (HLA B*2705) | Normalized average relative binding affinity (ARB), HLA A*6802 (HLA A*6802) | Normalized average relative binding affinity (ARB), HLA B*1503 (HLA B*1503) | Normalized average relative binding affinity (ARB), HLA A*0201 (HLA A*0201) | Normalized average relative binding affinity (ARB), HLA A*3001 (HLA A*3001) | Normalized average relative binding affinity (ARB), HLA B*5401 (HLA B*5401) | Normalized average relative binding affinity (ARB), HLA B*5301 (HLA B*5301) | Normalized average relative binding affinity (ARB), HLA A*3201 (HLA A*3201) | Normalized average relative binding affinity (ARB), HLA B*0801 (HLA B*0801) | Normalized average relative binding affinity (ARB), HLA B*3501 (HLA B*3501) | Normalized average relative binding affinity (ARB), H-2 Dd (H-2 D^d) | Normalized average relative binding affinity (ARB), HLA B*5802 (HLA B*5802)
HXXXXXXXX [3064.0007] | 0.43 | 0.59 | 0.91 | 0.80 | 0.15 | 0.17 | 0.49 | 0.53 | 0.20 | 0.0048 | 0.49 | 0.34 | 1.0 | 0.38 | 0.18 | 1.0 | 0.21 | 0.026
XXEXXXXXX [3064.0044] | 0.095 | 0.040 | 0.27 | 0.052 | 0.070 | 0.032 | 0.071 | 0.046 | 0.044 | 0.037 | 0.0031 | 0.0049 | 0.031 | 0.14 | 0.034 | 0.073 | 0.0030 | 0.049
KXXXXXXXX [3064.0009] | 1.0 | 0.39 | 0.082 | 0.37 | 0.052 | 0.14 | 0.26 | 0.013 | 0.46 | 0.11 | 0.49 | 0.037 | 0.0057 | 1.0 | 0.039 | 0.050 | 0.18 | 1.0
QXXXXXXXX [3064.0014] | 0.17 | 0.25 | 0.45 | 0.065 | 0.037 | 0.060 | 0.067 | 0.039 | 0.074 | 0.019 | 0.063 | 0.031 | 0.021 | 0.23 | 0.048 | 0.081 | 0.39 | 0.033
XSXXXXXXX [3064.0036] | 1.0 | 0.59 | 0.014 | 0.0043 | 0.10 | 0.80 | 0.012 | 0.27 | 0.13 | 0.0092 | 0.38 | 0.050 | 0.031 | 0.21 | 0.13 | 0.059 | 0.022 | 1.0
XXXCXXXXX [3064.0062] | 0.23 | 0.39 | 0.37 | 0.18 | 0.26 | 1.0 | 0.25 | 0.13 | 0.34 | 0.20 | 0.31 | 0.22 | 0.14 | 0.12 | 0.41 | 0.089 | 0.56 | 0.52
